Key:
lipoamide = compound: NC(=O)CCCCC1CCSS1 [lipoamide]; experiment: thermal stability z-score vs DMSO; higher = more thermally stabilized by treatment; settings: HeLa, lipoamide concentration 100 µM
Description: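 Cellular thermal proteome profiling in HeLa cells. Cells were treated with 100 µM lipoamide for 1 h, with or without 1 mM arsenate for a further 1 h, then heated to ten temperatures (37-66.3 °C), and soluble protein was quantified by TMT mass spectrometry relative to 0.1% DMSO controls. The thermal stability score (sum of log2 fold changes minus the abundance score) was transformed to a z-score; mean of n = 3 experiments.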

potassium arsenate = compound: O=[As]([O-])(O)O.[K+] [potassium arsenate]; experiment: as above; settings: HeLa; arsenate concentration 1 mM
Description: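 Cellular thermal proteome profiling in HeLa cells treated with 1 mM arsenate for 1 h (DMSO pretreatment), heated to ten temperatures (37-66.3 °C). Soluble protein was quantified by TMT mass spectrometry relative to DMSO controls; the thermal stability score was transformed to a z-score; mean of n = 3 experiments.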

[1] = arsenate co-treatment: 1 mM arsenate 1 h
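Note: each temperature applied for 3 min, abundance score taken as mean log2 fold change at the two lowest temperatures, z-score obtained by mean subtraction and division by SD.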

Chain of UniProt P30154 (P30154 whole entry): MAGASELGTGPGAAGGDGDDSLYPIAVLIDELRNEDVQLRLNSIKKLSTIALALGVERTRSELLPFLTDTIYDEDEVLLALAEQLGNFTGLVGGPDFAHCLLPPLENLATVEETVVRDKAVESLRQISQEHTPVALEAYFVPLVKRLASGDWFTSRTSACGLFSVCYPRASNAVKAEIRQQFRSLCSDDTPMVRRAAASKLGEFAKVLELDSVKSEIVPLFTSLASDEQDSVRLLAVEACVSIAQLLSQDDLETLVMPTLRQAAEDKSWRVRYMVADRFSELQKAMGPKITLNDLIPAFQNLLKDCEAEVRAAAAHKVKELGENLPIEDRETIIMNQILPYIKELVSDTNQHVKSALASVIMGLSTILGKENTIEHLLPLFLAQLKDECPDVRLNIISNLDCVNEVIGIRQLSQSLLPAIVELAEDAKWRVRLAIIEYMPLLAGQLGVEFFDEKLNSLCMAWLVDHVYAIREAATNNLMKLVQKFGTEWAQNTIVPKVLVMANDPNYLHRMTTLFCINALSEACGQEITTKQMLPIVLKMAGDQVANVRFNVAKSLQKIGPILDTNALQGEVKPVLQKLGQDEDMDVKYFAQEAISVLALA
Chain of UniProt P78410 (P78410 whole entry): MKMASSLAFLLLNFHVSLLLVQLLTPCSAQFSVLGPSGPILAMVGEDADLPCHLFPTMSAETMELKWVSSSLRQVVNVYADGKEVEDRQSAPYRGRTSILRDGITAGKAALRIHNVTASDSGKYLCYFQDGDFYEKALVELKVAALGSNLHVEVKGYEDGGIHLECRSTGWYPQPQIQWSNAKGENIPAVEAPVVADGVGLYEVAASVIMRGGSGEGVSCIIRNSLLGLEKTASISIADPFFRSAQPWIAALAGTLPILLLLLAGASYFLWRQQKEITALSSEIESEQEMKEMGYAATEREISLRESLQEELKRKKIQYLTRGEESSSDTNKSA
Chain of UniProt O60488 (O60488 whole entry): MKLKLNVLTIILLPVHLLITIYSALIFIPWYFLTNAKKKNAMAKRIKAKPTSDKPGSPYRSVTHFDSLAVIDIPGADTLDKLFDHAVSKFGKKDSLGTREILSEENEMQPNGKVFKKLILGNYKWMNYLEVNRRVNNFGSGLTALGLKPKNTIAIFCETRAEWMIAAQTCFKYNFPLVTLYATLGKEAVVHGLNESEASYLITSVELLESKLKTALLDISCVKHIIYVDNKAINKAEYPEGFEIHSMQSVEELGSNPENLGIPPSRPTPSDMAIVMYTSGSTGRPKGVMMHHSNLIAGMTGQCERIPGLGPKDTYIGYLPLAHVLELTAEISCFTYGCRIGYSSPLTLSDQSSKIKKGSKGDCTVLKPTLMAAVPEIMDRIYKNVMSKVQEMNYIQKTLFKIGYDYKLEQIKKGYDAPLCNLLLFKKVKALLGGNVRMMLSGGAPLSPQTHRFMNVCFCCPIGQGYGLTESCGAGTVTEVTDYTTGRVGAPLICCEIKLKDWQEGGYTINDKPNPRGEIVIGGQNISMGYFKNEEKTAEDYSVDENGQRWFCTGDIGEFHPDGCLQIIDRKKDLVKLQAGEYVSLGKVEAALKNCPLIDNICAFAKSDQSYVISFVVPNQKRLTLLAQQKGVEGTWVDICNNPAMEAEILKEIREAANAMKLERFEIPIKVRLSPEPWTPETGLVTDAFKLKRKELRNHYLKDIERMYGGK
Chain of UniProt Q53GA4 (Q53GA4 whole entry): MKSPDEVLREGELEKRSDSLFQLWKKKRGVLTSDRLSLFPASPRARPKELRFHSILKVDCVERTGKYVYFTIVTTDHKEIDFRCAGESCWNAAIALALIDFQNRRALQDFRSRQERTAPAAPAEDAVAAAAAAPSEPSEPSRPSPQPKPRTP
Chain of UniProt P49815 (P49815 whole entry): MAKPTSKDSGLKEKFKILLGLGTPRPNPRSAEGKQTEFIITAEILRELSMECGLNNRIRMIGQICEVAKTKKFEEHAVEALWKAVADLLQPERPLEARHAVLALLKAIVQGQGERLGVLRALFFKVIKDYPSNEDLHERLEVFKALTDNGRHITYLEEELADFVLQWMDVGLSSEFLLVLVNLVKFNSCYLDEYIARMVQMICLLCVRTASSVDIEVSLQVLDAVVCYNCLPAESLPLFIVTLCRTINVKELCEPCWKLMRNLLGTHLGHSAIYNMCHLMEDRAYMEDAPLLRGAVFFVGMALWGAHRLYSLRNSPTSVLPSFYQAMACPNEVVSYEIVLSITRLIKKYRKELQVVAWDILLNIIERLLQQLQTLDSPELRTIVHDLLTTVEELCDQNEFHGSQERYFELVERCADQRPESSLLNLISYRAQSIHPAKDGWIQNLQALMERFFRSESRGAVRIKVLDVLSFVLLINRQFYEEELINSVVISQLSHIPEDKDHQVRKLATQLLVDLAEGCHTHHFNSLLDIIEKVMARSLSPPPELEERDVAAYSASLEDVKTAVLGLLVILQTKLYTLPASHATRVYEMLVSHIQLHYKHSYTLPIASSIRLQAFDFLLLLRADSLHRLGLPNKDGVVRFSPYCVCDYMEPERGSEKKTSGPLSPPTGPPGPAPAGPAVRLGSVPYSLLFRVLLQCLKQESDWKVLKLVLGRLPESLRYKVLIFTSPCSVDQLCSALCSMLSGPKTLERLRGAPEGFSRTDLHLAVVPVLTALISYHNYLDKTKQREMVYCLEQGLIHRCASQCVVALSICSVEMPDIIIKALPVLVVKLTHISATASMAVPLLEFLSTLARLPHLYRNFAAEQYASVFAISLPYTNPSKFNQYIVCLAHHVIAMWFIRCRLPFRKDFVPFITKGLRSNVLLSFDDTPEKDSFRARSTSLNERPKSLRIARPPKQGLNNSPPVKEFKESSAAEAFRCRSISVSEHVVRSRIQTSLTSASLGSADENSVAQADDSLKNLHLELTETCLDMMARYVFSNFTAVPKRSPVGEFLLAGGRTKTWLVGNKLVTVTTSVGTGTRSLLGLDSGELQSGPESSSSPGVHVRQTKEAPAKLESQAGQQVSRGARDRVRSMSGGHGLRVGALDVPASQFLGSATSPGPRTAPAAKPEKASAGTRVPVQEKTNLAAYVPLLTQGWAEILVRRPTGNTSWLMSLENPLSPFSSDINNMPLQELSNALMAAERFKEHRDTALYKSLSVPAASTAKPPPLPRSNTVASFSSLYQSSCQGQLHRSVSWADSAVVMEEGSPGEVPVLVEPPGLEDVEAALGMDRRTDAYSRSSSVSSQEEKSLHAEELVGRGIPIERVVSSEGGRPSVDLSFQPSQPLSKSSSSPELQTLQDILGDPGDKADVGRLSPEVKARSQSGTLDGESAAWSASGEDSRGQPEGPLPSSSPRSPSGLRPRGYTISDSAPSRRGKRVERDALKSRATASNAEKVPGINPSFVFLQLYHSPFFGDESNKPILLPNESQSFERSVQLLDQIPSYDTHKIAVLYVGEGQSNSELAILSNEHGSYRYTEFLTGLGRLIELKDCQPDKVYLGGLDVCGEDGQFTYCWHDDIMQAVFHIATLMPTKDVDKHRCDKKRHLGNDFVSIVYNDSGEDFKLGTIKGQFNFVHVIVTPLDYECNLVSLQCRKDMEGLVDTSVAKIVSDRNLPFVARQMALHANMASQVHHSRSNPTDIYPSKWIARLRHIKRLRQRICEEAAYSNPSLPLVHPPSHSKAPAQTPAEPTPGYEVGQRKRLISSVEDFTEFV
Chain of UniProt P40855 (P40855 whole entry, change not shown): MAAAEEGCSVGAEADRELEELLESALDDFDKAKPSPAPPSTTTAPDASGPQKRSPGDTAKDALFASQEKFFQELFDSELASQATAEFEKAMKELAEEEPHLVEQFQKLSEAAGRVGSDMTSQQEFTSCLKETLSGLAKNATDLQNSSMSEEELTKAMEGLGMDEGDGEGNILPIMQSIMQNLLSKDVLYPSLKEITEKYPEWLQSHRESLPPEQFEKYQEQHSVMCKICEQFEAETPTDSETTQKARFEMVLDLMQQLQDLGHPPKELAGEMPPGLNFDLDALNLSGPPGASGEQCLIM
Chain of UniProt Q13164 (Q13164 whole entry, looked up): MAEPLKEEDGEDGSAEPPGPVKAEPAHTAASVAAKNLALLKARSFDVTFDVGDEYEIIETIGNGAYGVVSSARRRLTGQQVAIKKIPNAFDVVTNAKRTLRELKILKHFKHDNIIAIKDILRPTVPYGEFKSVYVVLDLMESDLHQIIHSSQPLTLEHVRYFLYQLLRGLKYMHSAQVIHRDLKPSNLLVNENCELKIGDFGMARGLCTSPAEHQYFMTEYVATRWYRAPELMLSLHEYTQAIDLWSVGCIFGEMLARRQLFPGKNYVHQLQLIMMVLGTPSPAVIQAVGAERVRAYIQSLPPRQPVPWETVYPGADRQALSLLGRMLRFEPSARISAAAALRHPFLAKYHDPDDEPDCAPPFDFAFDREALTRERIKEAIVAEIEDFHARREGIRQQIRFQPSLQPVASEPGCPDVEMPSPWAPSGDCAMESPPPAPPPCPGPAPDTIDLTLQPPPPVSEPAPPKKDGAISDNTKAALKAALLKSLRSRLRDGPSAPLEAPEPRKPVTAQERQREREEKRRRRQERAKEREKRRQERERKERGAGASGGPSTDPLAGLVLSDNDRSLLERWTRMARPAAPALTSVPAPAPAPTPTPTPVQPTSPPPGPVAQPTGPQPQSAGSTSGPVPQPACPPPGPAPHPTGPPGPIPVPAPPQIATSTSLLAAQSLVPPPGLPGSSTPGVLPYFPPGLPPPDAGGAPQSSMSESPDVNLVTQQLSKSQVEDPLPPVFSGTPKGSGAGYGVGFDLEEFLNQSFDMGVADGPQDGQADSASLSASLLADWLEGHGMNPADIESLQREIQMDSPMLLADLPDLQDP
Chain of UniProt Q9Y5U2 (Q9Y5U2 whole entry): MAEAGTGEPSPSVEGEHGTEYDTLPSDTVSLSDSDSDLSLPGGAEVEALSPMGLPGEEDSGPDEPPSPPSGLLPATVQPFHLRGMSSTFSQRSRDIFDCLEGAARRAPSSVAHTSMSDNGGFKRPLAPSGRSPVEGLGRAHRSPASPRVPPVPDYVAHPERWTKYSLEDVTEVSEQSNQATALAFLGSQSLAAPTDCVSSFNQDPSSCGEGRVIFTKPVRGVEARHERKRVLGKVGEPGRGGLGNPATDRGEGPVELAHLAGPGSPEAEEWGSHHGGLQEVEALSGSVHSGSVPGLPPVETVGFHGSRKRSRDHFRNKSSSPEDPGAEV

Target	thermal stability z-score (lipoamide; [1])	thermal stability z-score (lipoamide; arsenate co-treatment: none)	thermal stability z-score (potassium arsenate)
PRKAR1A (UniProt P10644)	-0.101	0.167	-0.065
FLOT2 (UniProt Q14254)	0.746	0.534	-1.32
AIMP2 (UniProt Q13155)	-0.616	-0.263	0.702
ACP2 (UniProt P11117)	-0.226	-0.57	0.375
EDIL3 (UniProt O43854)	-0.15	-0.528	1.14
RBM27 (UniProt Q9P2N5)	-0.453	-0.373	-0.145
SEC24C (UniProt P53992)	0.0998	0.0631	0.38
PHLDA2 (UniProt Q53GA4)	-0.116	0.13	1.41
SMTN (UniProt P53814)	0.0165	0.00756	-0.4
SRFBP1 (UniProt Q8NEF9)	-0.0373	-0.0723	0.756
SPTAN1 (UniProt Q13813)	0.768	0.506	-1.44
SLC7A11 (UniProt Q9UPY5)	0.242	0.155	-0.0447
CHD8 (UniProt Q9HCK8)	-0.13	-0.00227	0.147
ABHD10 (UniProt Q9NUJ1)	0.377	-0.241	-0.374
PEX19 (UniProt P40855)	1.96	1.51	1.13
QPCTL (UniProt Q9NXS2)	-0.434	-0.457	-0.256
GSK3A (UniProt P49840)	-0.401	-0.28	-0.881
DCAF11 (UniProt Q8TEB1)	0.101	0.343	-0.996
SEC23IP (UniProt Q9Y6Y8)	-0.784	-1.16	1.54
PDIA5 (UniProt Q14554)	-3.58	-2.41	0.611
ACSL4 (UniProt O60488)	0.208	0.296	-1.66
GKAP1 (UniProt Q5VSY0)	0.161	0.36	-0.0462
BTN3A2 (UniProt P78410)	0.00462	0.0294	-1.15
ROBO1 (UniProt Q9Y6N7)	0.154	0.0459	-0.29

Target	thermal stability z-score (lipoamide; [1])	thermal stability z-score (lipoamide; arsenate co-treatment: none)	thermal stability z-score (potassium arsenate)
HMGB2 (UniProt P26583)	0.55	0.687	0.175
MAPK7 (UniProt Q13164)	0.0307	0.141	0.334
DENND6A (UniProt Q8IWF6)	-0.149	-0.836	-0.387
ZNF598 (UniProt Q86UK7)	0.0109	-0.407	-0.82
PHF23 (UniProt Q9BUL5)	0.843	0.376	-3.81
AKR7A2 (UniProt O43488)	0.2	-0.0291	0.581
DHX9 (UniProt Q08211)	0.398	1.65	-1.4
NDUFB4 (UniProt O95168)	0.137	0.173	0.489
FN3KRP (UniProt Q9HA64)	-0.401	0.365	0.155
DCLK2 (UniProt Q8N568)	-0.19	0.0433	0.0241
PPP2R1B (UniProt P30154)	0.0372	-0.0931	0.107
CSTF2 (UniProt P33240)	1.09	0.979	0.756
TSC2 (UniProt P49815)	0.021	-0.0212	0.0977
MCFD2 (UniProt Q8NI22)	-0.221	-0.109	-0.565
MARC2 (UniProt Q969Z3)	0.235	0.311	0.168
NCAPG2 (UniProt Q86XI2)	-0.00836	-0.0717	-0.267
RFC5 (UniProt P40937)	-0.341	-0.0735	0.971
KCTD10 (UniProt Q9H3F6)	0.997	0.63	1.06
USP28 (UniProt Q96RU2)	-0.088	-0.175	-0.158
ORC4 (UniProt O43929)	-0.121	-0.0936	-0.113
SLC2A1 (UniProt P11166)	0.651	0.659	0.124
ZGPAT (UniProt Q8N5A5)	-0.303	-0.13	-0.307
EXOC3 (UniProt O60645)	-0.653	-0.0663	0.149
ZFP91 (UniProt Q96JP5)	-0.301	0.00195	-0.352

Target	thermal stability z-score (lipoamide; [1])	thermal stability z-score (lipoamide; arsenate co-treatment: none)	thermal stability z-score (potassium arsenate)
CIRBP (UniProt Q14011)	0.435	-0.192	-0.194
SEC13 (UniProt P55735)	0.378	0.46	0.729
DSG1 (UniProt Q02413)	11	13.3	1.69
AP2M1 (UniProt Q96CW1)	0.48	0.0269	0.0231
SMAD4 (UniProt Q13485)	-0.233	-0.519	-0.746
MICAL3 (UniProt Q7RTP6)	0.231	0.334	0.0242
ELP4 (UniProt Q96EB1)	-0.492	0.609	0.742
RPS17 (UniProt P08708)	0.31	-0.0463	-0.614
SLC5A3 (UniProt P53794)	-0.536	-0.363	-1.12
USP6NL (UniProt Q92738)	0.194	-0.0598	0.0467
NUP98 (UniProt P52948)	-0.415	-0.292	0.214
DDHD1 (UniProt Q8NEL9)	-0.143	-0.142	0.0595
MTIF2 (UniProt P46199)	-0.77	-1.59	-0.789
WDR4 (UniProt P57081)	-0.105	-0.0364	0.00243
SPG7 (UniProt Q9UQ90)	-0.126	-0.0687	0.156
TSSC4 (UniProt Q9Y5U2)	1.17	0.668	-0.46
NPM1 (UniProt P06748)	1.35	0.674	-1.07
FBXO38 (UniProt Q6PIJ6)	0.0679	-0.115	-0.981
EOGT (UniProt Q5NDL2)	-1.18	-0.664	0.0751
PCNA (UniProt P12004)	0.353	-0.0687	1.56
C2ORF49 (UniProt Q9BVC5)	0.426	0.229	0.0813
S100A10 (UniProt P60903)	1.65	1.54	0.372
SH3GLB1 (UniProt Q9Y371)	-0.179	-0.0481	0.658

Source: the supplement of paper PMC12463676, “Small-molecule dissolution of stress granules by redox modulation benefits ALS models” (Nature Chemical Biology, 2025)
